Reference: patent US9029325B2, “Amylin analogues and pharmaceutical compositions thereof” (Novo Nordisk A/S, priority 2011, dated 2015)
Starred links: 1 amine or outer side, 2 acyl side, 3 side chain; linkers in the order of their positions; H or OH if unused. Positions of bridges follow the written chain, without caps; N, C: chain ends. Residues, ends and D or L forms follow the SMILES beside them. *: point of attachment. C20 diacid = O=C(O)CCCCCCCCCCCCCCCCCCC(=O)*; C18 diacid = O=C(O)CCCCCCCCCCCCCCCCC(=O)*; γGlu = O=C(O)[C@H](CCC(=O)[*:2])N[*:1]

Assay: Assay (I) efficacy testing on appetite (food intake), ad libitum fed rat model
Type: in vivo, Sprague Dawley (SD) rats
Text: Sprague Dawley (SD) rats from Taconic Europe, Denmark are used for the experiments. The rats have a body weight 200-250 g at the start of experiment. The rats arrive at least 10-14 days before start of experiment to allow acclimatization to experimental settings. During this period the animals are handled at least 2 times. After arrival rats are housed individually for one week in a reversed light/dark phase (meaning that lights are off during daytime and on during nighttime) […]. Since rats are normally active and eat their major part of their daily food intake during the dark period, rats are dosed in the morning right before lights are turned off. This set-up results in the lowest data variation and highst test sensitivity. The experiment is conducted in the rats' home cages and rats have free access to food and water througout the acclimatization period and the experiment period. Each dose of derivative is tested in a group of 5-8 rats. A vehicle group of 6-8 rats is included in each set of testing. Rats are dosed once according to body weight with a 0.01-3 mg/kg solution administered intraperitoneally (ip), orally (po) or subcutaneously (sc). The time of dosing is recorded for each group. After dosing, the rats are returned to their home cages, where they then have access to food and water. The food consumption is recorded individually continuously by on-line registration or manually every hour for 7 hours, and then after 24 h and sometimes 48 h. At the end of the experimental session, the animals are euthanised.
The individual data are recorded in Microsoft excel sheets. Outliers are excluded after applying the Grubbs statistical evaluation test for outliers, and the result is presented graphically using the GraphPad Prism program.

Structure (SMILES)	Food intake reduction 0-24 h 3 nmol/kg (%)	Food intake reduction 24-48 h 3 nmol/kg (%)	Food intake reduction 0-24 h 30 nmol/kg (%)	Food intake reduction 24-48 h 30 nmol/kg (%)
CC[C@H](C)[C@H](NC(=O)[C@@H]1CCCN1C(=O)CNC(=O)[C@H](Cc1ccccc1)NC(=O)[C@H](CC(N)=O)NC(=O)[C@H](CC(N)=O)NC(=O)[C@H](CO)NC(=O)[C@H](CO)NC(=O)[C@H](CCCNC(=N)N)NC(=O)[C@H](Cc1c[nH]cn1)NC(=O)[C@H](CC(C)C)NC(=O)[C@H](Cc1ccccc1)NC(=O)[C@H](CCC(=O)O)NC(=O)[C@H](C)NC(=O)[C@H](CC(C)C)NC(=O)[C@H](CCCNC(=N)N)NC(=O)[C@H](CCC(N)=O)NC(=O)[C@@H](NC(=O)[C@H](C)NC(=O)[C@@H]1CSSC[C@H](NC(=O)[C@H](CCC(=O)O)NC(=O)CC[C@H](NC(=O)CCCCCCCCCCCCCCCCCCC(=O)O)C(=O)O)C(=O)N[C@@H](CC(N)=O)C(=O)N[C@@H]([C@@H](C)O)C(=O)N[C@@H](C)C(=O)N[C@@H]([C@@H](C)O)C(=O)N1)[C@@H](C)O)C(=O)N[C@@H](CC(C)C)C(=O)N1CCC[C@H]1C(=O)N1CCC[C@H]1C(=O)N[C@H](C(=O)N[C@@H](CC(N)=O)C(=O)N[C@H](C(=O)NCC(=O)N[C@@H](CO)C(=O)N[C@@H](CC(N)=O)C(=O)N[C@H](C(=O)N1CCC[C@H]1C(N)=O)[C@@H](C)O)C(C)C)[C@@H](C)O [Example 10, N-alpha-[(S)-4-Carboxy-4-(19-carboxynonadecanoylamino)butyryl]-[Glu1, Glu14, His17, Arg18, Pro37]-pramlintide] ({C20 diacid-γGlu}-ECNTATCATQRLAEFLHRSSNNFGPILPPTNVGSNTP-NH2; disulfide 2-7)	50%	40%		
CC[C@H](C)[C@H](NC(=O)[C@@H]1CCCN1C(=O)CNC(=O)[C@H](Cc1ccccc1)NC(=O)[C@H](CC(N)=O)NC(=O)[C@H](CC(N)=O)NC(=O)[C@H](CO)NC(=O)[C@H](CO)NC(=O)[C@H](Cc1c[nH]cn1)NC(=O)[C@H](Cc1c[nH]cn1)NC(=O)[C@H](CC(C)C)NC(=O)[C@H](Cc1ccccc1)NC(=O)[C@H](CCC(=O)O)NC(=O)[C@H](C)NC(=O)[C@H](CC(C)C)NC(=O)[C@H](CCCNC(=N)N)NC(=O)[C@H](CCC(N)=O)NC(=O)[C@@H](NC(=O)[C@H](C)NC(=O)[C@@H]1CSSC[C@H](NC(=O)[C@H](Cc2c[nH]cn2)NC(=O)[C@H](Cc2c[nH]cn2)NC(=O)[C@H](Cc2c[nH]cn2)NC(=O)CC[C@H](NC(=O)CCCCCCCCCCCCCCCCCCC(=O)O)C(=O)O)C(=O)N[C@@H](CC(N)=O)C(=O)N[C@@H]([C@@H](C)O)C(=O)N[C@@H](C)C(=O)N[C@@H]([C@@H](C)O)C(=O)N1)[C@@H](C)O)C(=O)N[C@@H](CC(C)C)C(=O)N1CCC[C@H]1C(=O)N1CCC[C@H]1C(=O)N[C@H](C(=O)N[C@@H](CC(N)=O)C(=O)N[C@H](C(=O)NCC(=O)N[C@@H](CO)C(=O)N[C@@H](CC(N)=O)C(=O)N[C@H](C(=O)N[C@@H](Cc1ccc(O)cc1)C(N)=O)[C@@H](C)O)C(C)C)[C@@H](C)O [Example 11, N-alpha-[(S)-4-Carboxy-4-(19-carboxynonadecanoylamino)butyryl]-His-His-[His1,Glu14,His17]-pramlintide] ({C20 diacid-γGlu}-HHHCNTATCATQRLAEFLHHSSNNFGPILPPTNVGSNTY-NH2; disulfide 4-9)			87%	92%
CC[C@H](C)[C@H](NC(=O)[C@@H]1CCCN1C(=O)CNC(=O)[C@H](Cc1ccccc1)NC(=O)[C@H](CC(N)=O)NC(=O)[C@H](CC(N)=O)NC(=O)[C@H](CO)NC(=O)[C@H](CO)NC(=O)[C@H](Cc1c[nH]cn1)NC(=O)[C@H](Cc1c[nH]cn1)NC(=O)[C@H](CC(C)C)NC(=O)[C@H](Cc1ccccc1)NC(=O)[C@H](CCC(=O)O)NC(=O)[C@H](C)NC(=O)[C@H](CC(C)C)NC(=O)[C@H](CCCNC(=N)N)NC(=O)[C@H](CCC(N)=O)NC(=O)[C@@H](NC(=O)[C@H](C)NC(=O)[C@@H]1CSSC[C@H](NC(=O)[C@H](CCCCN)NC(=O)CC[C@H](NC(=O)CCCCCCCCCCCCCCCCCCC(=O)O)C(=O)O)C(=O)N[C@@H](CC(N)=O)C(=O)N[C@@H]([C@@H](C)O)C(=O)N[C@@H](C)C(=O)N[C@@H]([C@@H](C)O)C(=O)N1)[C@@H](C)O)C(=O)N[C@@H](CC(C)C)C(=O)N1CCC[C@H]1C(=O)N1CCC[C@H]1C(=O)N[C@H](C(=O)N[C@@H](CC(N)=O)C(=O)N[C@H](C(=O)NCC(=O)N[C@@H](CO)C(=O)N[C@@H](CC(N)=O)C(=O)N[C@H](C(=O)N[C@@H](Cc1ccc(O)cc1)C(N)=O)[C@@H](C)O)C(C)C)[C@@H](C)O [Example 27, N-alpha-[(S)-4-Carboxy-4-(19-carboxynonadecanoylamino)butyryl]-[Glu14,His17]-pramlintide] ({C20 diacid-γGlu}-KCNTATCATQRLAEFLHHSSNNFGPILPPTNVGSNTY-NH2; disulfide 2-7)	56%	53%		
CC[C@H](C)[C@H](NC(=O)[C@@H]1CCCN1C(=O)CNC(=O)[C@H](Cc1ccccc1)NC(=O)[C@H](CC(N)=O)NC(=O)[C@H](CC(N)=O)NC(=O)[C@H](CO)NC(=O)[C@H](CO)NC(=O)[C@H](Cc1c[nH]cn1)NC(=O)[C@H](Cc1c[nH]cn1)NC(=O)[C@H](CC(C)C)NC(=O)[C@H](Cc1ccccc1)NC(=O)[C@H](CCC(=O)O)NC(=O)[C@H](C)NC(=O)[C@H](CC(C)C)NC(=O)[C@H](CCCNC(=N)N)NC(=O)[C@H](CCC(N)=O)NC(=O)[C@@H](NC(=O)[C@H](C)NC(=O)[C@@H]1CSSC[C@H](NC(=O)[C@H](CCCCN)NC(=O)[C@H](CCC(=O)O)NC(=O)CC[C@H](NC(=O)CCCCCCCCCCCCCCCCC(=O)O)C(=O)O)C(=O)N[C@@H](CC(N)=O)C(=O)N[C@@H]([C@@H](C)O)C(=O)N[C@@H](C)C(=O)N[C@@H]([C@@H](C)O)C(=O)N1)[C@@H](C)O)C(=O)N[C@@H](CC(C)C)C(=O)N1CCC[C@H]1C(=O)N1CCC[C@H]1C(=O)N[C@H](C(=O)N[C@@H](CC(N)=O)C(=O)N[C@H](C(=O)NCC(=O)N[C@@H](CO)C(=O)N[C@@H](CC(N)=O)C(=O)N[C@H](C(=O)N[C@@H](Cc1ccc(O)cc1)C(N)=O)[C@@H](C)O)C(C)C)[C@@H](C)O [Example 42, N-alpha-[(S)-4-Carboxy-4-(17-carboxyheptadecanoylamino)butyryl]-Glu-[Glu14, His17]-pramlintide] ({C18 diacid-γGlu}-EKCNTATCATQRLAEFLHHSSNNFGPILPPTNVGSNTY-NH2; disulfide 3-8 (inferred); C-terminus assumed)	45%	5%		
CC[C@H](C)[C@H](NC(=O)[C@@H]1CCCN1C(=O)CNC(=O)[C@H](Cc1ccccc1)NC(=O)[C@H](CC(N)=O)NC(=O)[C@H](CC(N)=O)NC(=O)[C@H](CO)NC(=O)[C@H](CO)NC(=O)[C@H](Cc1c[nH]cn1)NC(=O)[C@H](Cc1c[nH]cn1)NC(=O)[C@H](CC(C)C)NC(=O)[C@H](Cc1ccccc1)NC(=O)[C@H](CCC(=O)O)NC(=O)[C@H](C)NC(=O)[C@H](CC(C)C)NC(=O)[C@H](CCCNC(=N)N)NC(=O)[C@H](CCC(N)=O)NC(=O)[C@@H](NC(=O)[C@H](C)NC(=O)[C@@H]1CSSC[C@H](NC(=O)[C@H](CCCCN)NC(=O)CC[C@H](NC(=O)CCCCCCCCCCCCCCCCCCC(=O)O)C(=O)O)C(=O)N[C@@H](CC(N)=O)C(=O)N[C@@H]([C@@H](C)O)C(=O)N[C@@H](C)C(=O)N[C@@H]([C@@H](C)O)C(=O)N1)[C@@H](C)O)C(=O)N[C@@H](CC(C)C)C(=O)N1CCC[C@H]1C(=O)N1CCC[C@H]1C(=O)N[C@H](C(=O)N[C@@H](CC(N)=O)C(=O)N[C@H](C(=O)NCC(=O)N[C@@H](CO)C(=O)N[C@@H](Cc1c[nH]cn1)C(=O)N[C@H](C(=O)N[C@@H](Cc1ccc(O)cc1)C(N)=O)[C@@H](C)O)C(C)C)[C@@H](C)O [Example 55, N-alpha-[(S)-4-Carboxy-4-(19-carboxynonadecanoylamino)butyryl]-[Glu14,His17,His 35]-pramlintide] ({C20 diacid-γGlu}-KCNTATCATQRLAEFLHHSSNNFGPILPPTNVGSHTY-NH2; disulfide 2-7 (inferred); C-terminus assumed)	58%	40%	88%	90%
